# In patent publication US8906904B2, “Alkoxy pyrazoles as soluble guanylate cyclase activators” (Boehringer Ingelheim International GmbH, priority 2012, dated 2014):
# How the values were obtained:
# [1] = Assessment of solubility (McIlvaine buffers, 24 h shake, UPLC-UV); assay type: physicochemical; settings: kinetic from dmso stock
# Procedure, shortened: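 Compounds from 10 mM DMSO stocks were shaken for 24 h at room temperature in McIlvaine buffers at pH 2.2, 4.5 and 6.8 (2.5% v/v DMSO final), then filtered. Filtrates were quantified by UPLC-UV at 254 nm against a 50:50 acetonitrile/water reference assumed fully dissolved, as a single determination.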
# [2] = target: T1, human soluble guanylate cyclase alpha 1 and beta 1 subunits (sGC) (Homo sapiens, UniProt Q02108+Q02153); assay: sGC cellular activator assay (cGMP, HTRF); assay type: cell-based; settings: CHO cells stably expressing human sGC alpha 1/beta 1, preincubated with 40 microM ODQ; cGMP readout; assay run with and without 50% human serum, Table 2 does not say which
# T1 construct: expressed in transfected cells; host or cells: Chinese hamster ovary (CHO) cells, stably transfected
# T1 sequence (Q02108 1-690): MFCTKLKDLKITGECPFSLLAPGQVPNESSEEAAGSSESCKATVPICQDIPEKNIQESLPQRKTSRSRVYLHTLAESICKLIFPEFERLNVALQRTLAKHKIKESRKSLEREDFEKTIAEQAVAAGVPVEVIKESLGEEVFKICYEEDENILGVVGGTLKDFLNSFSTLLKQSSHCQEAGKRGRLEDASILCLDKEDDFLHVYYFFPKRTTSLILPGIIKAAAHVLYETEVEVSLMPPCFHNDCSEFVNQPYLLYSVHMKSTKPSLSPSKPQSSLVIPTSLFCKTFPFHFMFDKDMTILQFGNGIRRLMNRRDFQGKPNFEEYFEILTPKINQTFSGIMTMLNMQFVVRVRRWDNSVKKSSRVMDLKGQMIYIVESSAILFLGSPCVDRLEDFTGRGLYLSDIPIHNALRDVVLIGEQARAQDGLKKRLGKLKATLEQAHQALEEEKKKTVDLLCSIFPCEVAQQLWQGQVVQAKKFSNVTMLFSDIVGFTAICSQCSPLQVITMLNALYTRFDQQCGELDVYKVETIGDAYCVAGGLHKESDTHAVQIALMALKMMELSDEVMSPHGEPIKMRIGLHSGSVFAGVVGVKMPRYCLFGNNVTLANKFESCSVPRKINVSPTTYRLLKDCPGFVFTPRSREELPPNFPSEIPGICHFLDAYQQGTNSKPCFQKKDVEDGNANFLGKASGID
# T1 sequence (Q02153 1-619): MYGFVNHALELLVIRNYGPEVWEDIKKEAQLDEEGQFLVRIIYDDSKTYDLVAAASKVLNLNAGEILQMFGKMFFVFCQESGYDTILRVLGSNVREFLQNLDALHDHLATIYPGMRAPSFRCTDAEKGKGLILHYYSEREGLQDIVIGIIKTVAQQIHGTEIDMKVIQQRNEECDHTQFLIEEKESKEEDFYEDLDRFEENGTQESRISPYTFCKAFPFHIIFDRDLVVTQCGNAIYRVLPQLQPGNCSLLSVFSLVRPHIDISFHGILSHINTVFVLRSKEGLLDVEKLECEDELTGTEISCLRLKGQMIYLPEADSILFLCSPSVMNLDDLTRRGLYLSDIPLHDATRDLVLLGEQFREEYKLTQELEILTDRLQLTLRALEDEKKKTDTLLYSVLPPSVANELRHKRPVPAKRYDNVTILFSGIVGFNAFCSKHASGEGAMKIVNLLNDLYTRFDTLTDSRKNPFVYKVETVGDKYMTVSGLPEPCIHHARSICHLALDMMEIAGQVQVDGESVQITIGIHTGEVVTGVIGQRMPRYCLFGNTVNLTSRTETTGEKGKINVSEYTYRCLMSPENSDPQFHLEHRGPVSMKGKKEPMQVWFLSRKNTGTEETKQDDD
# Procedure, shortened: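 First, CHO-sGC (human α1β1) cells get 1 h ODQ at 40 microM with IBMX and 0.1% BSA. Finally, cGMP is quantified by HTRF and EC50 computed.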
Structure (SMILES),"solubility at 24 h ([1]; pH 2.2, aqueous buffer) [µg/mL]","solubility at 24 h ([1]; pH 4.5, aqueous buffer) [µg/mL]","solubility at 24 h ([1]; pH 6.8, aqueous buffer) [µg/mL]",EC50 [2] [nM]
CC(C)Oc1c(C(=O)O)cnn1-c1cccc(-c2ccccc2OCc2ccc3c(c2)CCN(C2CCOCC2)C3)n1 [Compound 144],110,89,93,460
CCOc1c(C(=O)O)cnn1-c1cccc(-c2cccc(C)c2OCc2cc(C)c3c(c2)CN(C2CCOCC2)C3)n1 [Compound 118],110,84,92,39
CCOc1c(C(=O)O)cnn1-c1cccc(-c2cccc(C)c2OCc2ccc3c(c2C)CCN(CCOCCO)C3)n1 [Compound 168],110,90,88,580
CCOc1c(C(=O)O)cnn1-c1cccc(-c2cccc(C)c2OCc2ccc3c(c2C)CCN(C2COC(C)(C)OC2)C3)n1 [Compound 155],60,66,73,86
COc1c(C(=O)O)cnn1-c1cccc(-c2cccc(C)c2OCc2ccc3c(c2C)CCN(S(C)(=O)=O)C3)n1 [Compound 160],< 0.1,0.93,73,110
CCCOc1c(C(=O)O)cnn1-c1cccc(-c2cccc(C)c2OCc2ccc3c(c2C)CCN(C2CCOCC2)C3)n1 [Compound 133],120,99,100,27
CCOc1c(C(=O)O)cnn1-c1cccc(-c2cccc(C)c2OCc2ccc3c(c2F)CCN(C2CCOCC2)C3)n1 [Compound 159],86,55,51,53
COCCOc1c(C(=O)O)cnn1-c1cccc(-c2cccc(C)c2OCc2ccc3c(c2C)CCN(C2CCCOC2)C3)n1 (centres unmarked) [Compound 149],110,78,81,44
CCOc1c(C(=O)O)cnn1-c1cccc(-c2cccc(C)c2OCc2ccc3c(c2C)CCN(CC2CCOC(C)(C)C2)C3)n1 (centres unmarked) [Compound 163],110,75,73,55
COc1c(C(=O)O)cnn1-c1cccc(-c2cccc(C)c2OCc2ccc3c(c2)CCCN(C2CCOCC2)C3)n1 [Compound 100],110,88,97,170
COc1c(C(=O)O)cnn1-c1cccc(-c2cccc(C)c2OCc2ccc3c(c2)CCN(C(C)C)C3)n1 [Compound 13],100,84,87,180
COc1c(C(=O)O)cnn1-c1cccc(-c2cccc(C)c2OCc2ccc3c(c2F)CCN(C2COC2)C3)n1 [Compound 177],110,58,86,35
CCOc1c(C(=O)O)cnn1-c1cccc(-c2cccc(C)c2OCc2ccc3c(c2C)CCN(CC2CCOCC2)C3)n1 [Compound 172],110,87,85,50
COc1c(C(=O)O)cnn1-c1cccc(-c2cccc(C)c2OCc2cc3c(c(C(F)(F)F)c2)CN(C2CCOCC2)CC3)n1 [Compound 158],64,43,41,30
CCOc1c(C(=O)O)cnn1-c1cccc(-c2cccc(C)c2OCc2ccc3c(c2C)CCN(C[C@H]2CCCOC2)C3)n1 [Compound 153],87,67,65,26
COCCOc1c(C(=O)O)cnn1-c1cccc(-c2cccc(C)c2OCc2ccc3c(c2C)CCN(C2CCOCC2)C3)n1 [Compound 151],110,98,85,130
"CCOc1c(C(=O)O)cnn1-c1cccc(-c2cccc(C)c2OCc2ccc3c(c2C)CCN(C(=O)C2CCOCC2)C3)n1 [Compound 147, 5-Ethoxy-1-(6-{3-methyl-2-[5-methyl-2-(tetrahydro-pyran-4-carbonyl)-1,2,3,4-tetrahydro-isoquinolin-6-ylmethoxy]-phenyl}-pyridin-2-yl)-1H-pyrazole-4-carboxylic acid]",1.2,3.1,75,450
CCOc1c(C(=O)O)cnn1-c1cccc(-c2cccc(C)c2OCc2ccc3c(c2C)CCN([C@H]2CCOC2)C3)n1 [Compound 125],110,76,78,27

# Now those with a lower EC50 [2], led by results:
"solubility at 24 h ([1]; pH 2.2, aqueous buffer) [µg/mL]","solubility at 24 h ([1]; pH 4.5, aqueous buffer) [µg/mL]","solubility at 24 h ([1]; pH 6.8, aqueous buffer) [µg/mL]",EC50 [2] [nM],Structure (SMILES)
100,88,79,23,CCOc1c(C(=O)O)cnn1-c1cccc(-c2cccc(C)c2OCc2ccc3c(c2C)CCN(CC2CCCOC2)C3)n1 (centres unmarked) [Compound 146]
100,72,86,14,COc1c(C(=O)O)cnn1-c1cccc(-c2cccc(C)c2OCc2cc(C)c3c(c2C)CCN(C2COC2)C3)n1 [Compound 178]
100,83,82,23,CCOc1c(C(=O)O)cnn1-c1cccc(-c2cccc(C)c2OCc2ccc3c(c2C)CCN(C2CCOCC2)CC3)n1 [Compound 162]
130,110,120,8.4,COc1c(C(=O)O)cnn1-c1cccc(-c2cccc(C)c2OCc2ccc3c(c2C)CCN(C[C@@H]2COCCO2)C3)n1 [Compound 139]
120,100,97,13,CCOc1c(C(=O)O)cnn1-c1cccc(-c2cccc(C)c2OCc2cc(C)c3c(c2)CCN(C2CCOCC2)C3)n1 [Compound 169]
110,94,97,12,COc1c(C(=O)O)cnn1-c1cccc(-c2cccc(C)c2OCc2cc(C)c3c(c2C)CCN(C2CCOCC2)C3)n1 [Compound 120]
93,77,78,15,CCOc1c(C(=O)O)cnn1-c1cccc(-c2cccc(C)c2OCc2ccc3c(c2C)CCN([C@@H]2CCCOC2)C3)n1 [Compound 128]
100,77,43,9.7,COc1c(C(=O)O)cnn1-c1cccc(-c2cccc(C)c2OCc2ccc3c(c2C)CCN(C2COC2)CC3)n1 [Compound 176]
120,58,39,11,CCOc1c(C(=O)O)cnn1-c1cccc(-c2cccc(C)c2OCc2ccc3c(c2C(F)(F)F)CCN(C2CCOCC2)C3)n1 [Compound 165]
99,71,91,14,CCOc1c(C(=O)O)cnn1-c1cccc(-c2cccc(C)c2OCc2cc(C)c3c(c2)CCN(C2COC2)C3)n1 [Compound 174]
140,120,120,15,COc1c(C(=O)O)cnn1-c1cccc(-c2cccc(C)c2OCc2ccc3c(c2C)CCN([C@@H]2CCCOC2)C3)n1 [Compound 140]
